Data taken from US20040029905A1, “Use of weak opioids and mixed opioid agonists/antagonists for treatment of urinary incontinence” (Gruenenthal GmbH, priority 2000, published 2004).

Each compound was assayed on anaesthetized naïve female rats (assay: Cystometry on anaesthetized naïve rats (suppression of rhythmic spontaneous bladder contractions)). Details: i.v., cumulative administration; mean of the lowest dose of 3 independent experiments at which contractions are first absent over a period of 10 min.
Format: in vivo, rat
Procedure: The cystometric investigation of naïve female rats was carried out by the method of Kimura et al. (Kimura et al., 1996, Int. J. Urol. 3:218-227). The abdomen of anaesthetized ventilated rats is opened up and the ureter is tied off. The urine is drained from the kidneys. A catheter is inserted into the bladder and fixed. […] After stable starting values are reached, the test substance is administered i.v. in a cumulative manner. An influence on bladder function manifests itself via suppression of spontaneous contractions. The absence of contractions over a period of 10 min is used as an indication of suppression.
A suppression of spontaneous contractions in the rats was measurable with all the substances tested. Table II indicates the mean of the lowest dose of 3 independent experiments at which for the first time contractions are absent over a period of 10 min.

Row | SMILES | Lowest dose effective for suppression of contraction
1 | CCOC(=O)[C@]1(c2ccccc2)CCC=C[C@H]1N(C)C (relative stereo) [Tilidine, trans-2-(dimethylamino)-1-phenyl-3-cyclohexene-1-carboxylic acid ethyl ester] | 0.5 (n = 3) mg/kg
2 | COc1ccc2c3c1O[C@H]1[C@@H](O)C=C[C@H]4[C@@H](C2)N(C)CC[C@@]341 [Codeine (phosphate), (5a,6a)-7,8-didehydro-4,5-epoxy-3-methoxy-17-methylmorphinan-6-ol] | 4.7 (n = 3) mg/kg
3 | CCC1(c2cccc(O)c2)CCCCN(C)C1 (stereo not drawn) [Meptazinol, 3-(3-ethylhexahydro-1-methyl-1H-azepin-3-yl)phenol] | 1.0 (n = 3) mg/kg
